Test [1] has as its target T1, SARS-CoV-2 PLpro (nsp3 1564–1878) (Severe acute respiratory syndrome coronavirus 2, UniProt P0DTD1). The test is described as follows: biochemical. On the set-up: FRET-quenched peptide (Pro3) cleavage by PLpro, 10 min pre-incubation, slope over 20 min, normalised to no-compound control. The following applies: high concentration screen, read-out: % of control remaining.

Test [2] addresses T1, SARS-CoV-2 PLpro (nsp3 1564–1878). The test is described as follows: biochemical. The arrangement: FRET-quenched peptide (Pro3) cleavage by PLpro, 10 min pre-incubation, slope over 20 min, normalised to no-compound control. The conditions noted are these: low concentration screen, read-out: % of control remaining.

Molecules are shown by their SMILES. Structures can show the parent of a compound that is named as a salt. Where two headings read alike, the source gives them in different places. Where a SMILES comes first, the peptide text is derived from it. [ ]: non-standard residue; d: D form. The star is where a group is joined. Dolaproine = CO[C@@H]([C@@H]1CCCN1)[C@@H](C)C(=O)O; Hexanoyl(6-maleimido) = O=C1C=CC(=O)N1CCCCCC(=O)*; Dil = CC[C@H](C)[C@H](NC)[C@@H](CC(=O)O)OC; Doe = c1ccc(C[C@H](N*)c2nccs2)cc1; NMeV = CN[C@H](C(=O)O)C(C)C

`COc1ccc(/C=C2\COc3ccc(C)cc3C2=O)cc1O` [IMS2186]: in test [1] (Well no.=5394), the remaining activity at 3.75 µM was 97.5%. Also, in test [2] (Well no.=5394), the remaining activity at 1.25 µM was 97.1%.

`CC[C@H](C)[C@@H]([C@@H](CC(=O)N1CCC[C@H]1[C@H](OC)[C@@H](C)C(=O)N[C@@H](Cc1ccccc1)c1nccs1)OC)N(C)C(=O)[C@@H](NC(=O)[C@H](C(C)C)N(C)C(=O)CCCCCN1C(=O)C=CC1=O)C(C)C` [Mc-MMAD] ({Hexanoyl(6-maleimido)}-[NMeV]V[Dil][Dolaproine]-Doe): the remaining activity at 3.75 µM in test [1] (Well no.=8610) is 91.2%. Also, in test [2] (Well no.=8610), the remaining activity at 1.25 µM was 95.3%.

For the molecule `CCCCCC[C@@H]([C@@H](C)O)n1cnc2c(N)ncnc21` [erythro-9-(2-Hydroxy-3-nonyl)adenine hydrochloride], the remaining activity at 3.75 µM in test [1] (Well no.=513) came out at 105%. Moreover, the remaining activity at 1.25 µM in test [2] (Well no.=513) amounted to 105%.

On to `N[C@]1(C(=O)O)CC[C@H](C(=O)O)C1`, for which the remaining activity at 3.75 µM in test [1] (Well no.=64) amounted to 101%. For the same molecule, the remaining activity at 1.25 µM in test [2] (Well no.=64) was determined as 102%.

Take `CC1CCN(CC[C@H]2CCCN2S(=O)(=O)c2cccc(O)c2)CC1` [SB 269970 hydrochloride]: the remaining activity at 3.75 µM in test [1] (Well no.=1220) amounted to 104%. Further, in test [2] (Well no.=1220), the remaining activity at 1.25 µM came out at 102%.

On to `CCC(=O)NCC[C@@H]1CCc2ccc3c(c21)CCO3` [Ramelteon], for which the remaining activity at 3.75 µM in test [1] (Well no.=8525) amounted to 106%. Also, the remaining activity at 1.25 µM in test [2] (Well no.=8525) was determined as 104%.

On to `COC(=O)C[C@](O)(CCC(C)(C)O)C(=O)O[C@@H]1C(OC)=C[C@]23CCCN2CCc2cc4c(cc2[C@H]13)OCO4` [Harringtonine], for which, in test [1] (Well no.=3615), the remaining activity at 3.75 µM is 103%. In addition, in test [2] (Well no.=3615), the remaining activity at 1.25 µM turned out to be 105%.

Consider `CN(C)CCCCSC(=N)N` [SKF 91488 dihydrochloride], for which the remaining activity at 3.75 µM in test [1] (Well no.=1421) is 98.7%. Also, the remaining activity at 1.25 µM in test [2] (Well no.=1421) was determined as 100%.

On to `CN1[C@@H](CC(=O)c2ccccc2)CCC[C@H]1C[C@H](O)c1ccccc1`, for which the remaining activity at 3.75 µM in test [1] (Well no.=3438) came to 97.7%. For the same molecule, the remaining activity at 1.25 µM in test [2] (Well no.=3438) was found to be 97.9%.

`COc1cc2ncc(-c3ccccc3)nc2cc1OC` [AG 1296]: the remaining activity at 3.75 µM in test [1] (Well no.=2613) was 90.5%. Besides, the remaining activity at 1.25 µM in test [2] (Well no.=2613) was 91.6%.

As for `CN1CCN(CCCN2c3ccccc3Sc3ccc(Cl)cc32)CC1` [Prochlorperazine dimaleate], the remaining activity at 3.75 µM in test [1] (Well no.=1497) amounted to 101%. Further, the remaining activity at 1.25 µM in test [2] (Well no.=1497) came out at 99.3%.

For `CCNC(=O)[C@@H]1CCCN1C(=O)[C@H](CCCNC(=N)N)NC(=O)[C@H](CC(C)C)NC(=O)[C@@H](COC(C)(C)C)NC(=O)[C@H](Cc1ccc(O)cc1)NC(=O)[C@H](CO)NC(=O)[C@H](Cc1c[nH]c2ccccc12)NC(=O)[C@H](Cc1cnc[nH]1)NC(=O)[C@@H]1CCC(=O)N1` [Buserelin (Acetate)], the remaining activity at 3.75 µM in test [1] (Well no.=8151) came to 104%. Also, the remaining activity at 1.25 µM in test [2] (Well no.=8151) was determined as 106%.

Consider `Nc1nc2ccccc2c2ccccc12` [6-phenanthridinamine], for which, in test [1] (Well no.=5389), the remaining activity at 3.75 µM was found to be 102%. In addition, the remaining activity at 1.25 µM in test [2] (Well no.=5389) stood at 106%.

For `NCCc1c[nH]c2ccc(C(N)=O)cc12` [5-Carboxamidotryptamine maleate], the remaining activity at 3.75 µM in test [1] (Well no.=533) was 104%. Further, in test [2] (Well no.=533), the remaining activity at 1.25 µM came to 104%.

Take `CC(=O)N(C(C)=O)c1ccc(N=Nc2ccccc2C)cc1C` [Diacetazotol]: in test [1] (Well no.=7840), the remaining activity at 3.75 µM is 97.2%. Moreover, the remaining activity at 1.25 µM in test [2] (Well no.=7840) worked out at 98.8%.

For the molecule `COc1c2c(cc3c1OCO3)CCN(C)C2` [Hydrocotarnine HBr], the remaining activity at 3.75 µM in test [1] (Well no.=3462) worked out at 103%. Further, in test [2] (Well no.=3462), the remaining activity at 1.25 µM was determined as 102%.

Consider `CNC(=O)c1c(F)cccc1Nc1nc(Nc2cc3c(ccn3C(=O)CN(C)C)cc2OC)nc2[nH]ccc12` [GSK1838705A], for which, in test [1] (Well no.=5310), the remaining activity at 3.75 µM was 92%. In test [2] (Well no.=5310), the remaining activity at 1.25 µM came to 98%.

As to `CN1CCN(C(=O)/C=C/c2ccc([N+](=O)[O-])o2)CC1` [NSC59984], the remaining activity at 3.75 µM in test [1] (Well no.=6644) came to 106%. Also, in test [2] (Well no.=6644), the remaining activity at 1.25 µM is 105%.

In the case of `CCNC1(C(N)=O)CCN(c2ncnc3c2nc(-c2ccccc2Cl)n3-c2ccc(Cl)cc2)CC1` [Otenabant (CP-945598) HCl], the remaining activity at 3.75 µM in test [1] (Well no.=8494) is 108%. In test [2] (Well no.=8494), the remaining activity at 1.25 µM turned out to be 103%.

Take `CCC[C@H](NC(=O)/C(C#N)=C/c1cccc(Br)n1)c1ccccc1` [WP1130]: the remaining activity at 3.75 µM in test [1] (Well no.=4862) is 98.1%. Further, the remaining activity at 1.25 µM in test [2] (Well no.=4862) came out at 95.4%.

Turning to `CC[C@H](C)[C@H](NC(=O)[C@@H]1CCCN1C(=O)[C@H](Cc1cnc[nH]1)NC(=O)[C@@H](NC(=O)[C@H](Cc1ccc(O)cc1)NC(=O)[C@@H](NC(=O)[C@H](CCCN=C(N)N)NC(=O)CNC)C(C)C)[C@@H](C)CC)C(=O)O` [[Sar1, Ile8]-Angiotensin II (TFA)], the remaining activity at 3.75 µM in test [1] (Well no.=7588) is 92%. The remaining activity at 1.25 µM in test [2] (Well no.=7588) amounted to 96%.

`CCCCC1=NC2(CCCC2)C(=O)N1Cc1ccc(-c2ccccc2-c2nnn[nH]2)cc1` [Irbesartan]: the remaining activity at 3.75 µM in test [1] (Well no.=8251) worked out at 105%. Besides, the remaining activity at 1.25 µM in test [2] (Well no.=8251) came out at 105%.

`O=c1[nH]c(=O)n([C@H]2C[C@H](O)[C@@H](CO)O2)cc1Br` [5-BrdU]: the remaining activity at 3.75 µM in test [1] (Well no.=7862) is 97.6%. Further, the remaining activity at 1.25 µM in test [2] (Well no.=7862) turned out to be 96%.

In the case of `O=C(O)CCC(CP(=O)(O)O)C(=O)O` (stereo not shown) [PMPA tetrasodium], in test [1] (Well no.=1219), the remaining activity at 3.75 µM was 103%. Besides, the remaining activity at 1.25 µM in test [2] (Well no.=1219) worked out at 105%.

Consider `OC1CCCCC1N1CCC(c2ccccc2)CC1` (racemic), for which the remaining activity at 3.75 µM in test [1] (Well no.=1290) worked out at 97.9%. In addition, the remaining activity at 1.25 µM in test [2] (Well no.=1290) worked out at 101%.

Consider `C[C@H]1C(=O)O[C@@H]2CCN3CC=C(COC(=O)[C@](C)(O)[C@]1(C)O)[C@H]23` [Monocrotaline], for which the remaining activity at 3.75 µM in test [1] (Well no.=3777) is 103%. In test [2] (Well no.=3777), the remaining activity at 1.25 µM is 102%.

Regarding `C=C1C[C@@]2(O)O[C@@]3(C[C@H]2C(C)C)[C@@H](C)CC[C@@H]13` [Curcumol], the remaining activity at 3.75 µM in test [1] (Well no.=5202) was 85.6%. Besides, in test [2] (Well no.=5202), the remaining activity at 1.25 µM is 90.5%.

With `CNC[C@H](O)c1cccc(O)c1` [Phenylephrine hydrochloride], the remaining activity at 3.75 µM in test [1] (Well no.=958) was 103%. Further, in test [2] (Well no.=958), the remaining activity at 1.25 µM stood at 101%.

Take `Nc1cccc(-c2cc3c(Oc4cccc(O)c4)ncnc3[nH]2)c1` [TWS119]: the remaining activity at 3.75 µM in test [1] (Well no.=4612) is 99.7%. Moreover, the remaining activity at 1.25 µM in test [2] (Well no.=4612) was 100%.

For the molecule `CN(C)CCOc1cc(-c2cn[nH]c2)ccc1NC(=O)C1COc2ccccc2O1` (stereo not shown) [SR3677], in test [1] (Well no.=2989), the remaining activity at 3.75 µM is 98.3%. Further, the remaining activity at 1.25 µM in test [2] (Well no.=2989) amounted to 97.2%.

For the molecule `CC(CN(C)C)CN1c2ccccc2CCc2ccccc21` (stereo not shown) [Trimipramine (maleate)], the remaining activity at 3.75 µM in test [1] (Well no.=6715) is 100%. The remaining activity at 1.25 µM in test [2] (Well no.=6715) was found to be 106%.

As for `Cc1cc(C(=O)Nc2cccc(C(=O)Nc3cccc(C(F)(F)F)c3)c2)on1` [T56-LIMKi], the remaining activity at 3.75 µM in test [1] (Well no.=5920) was 98.1%. For the same molecule, in test [2] (Well no.=5920), the remaining activity at 1.25 µM stood at 101%.

The values are drawn from publication PMC8286840, “Identifying SARS-CoV-2 antiviral compounds by screening for small molecule inhibitors of Nsp3 papain-like protease” (Biochemical Journal, 2021).
